Results published in US20100330685A1, “DIAMINORHODAMINE DERIVATIVE” (SEKISUI MEDICAL CO., LTD., priority 2000, published 2010).
Structures can show the parent of a compound that is named as a salt.

Tests used:
[1] = system: Bovine aorta endothelial cells; assay: Imaging of nitric oxide in cells; format: cell-based
Description: Bovine aorta endothelial cells were cultured on an imaging dish. The culture broth was changed to DMEM medium (supplemented with 0.2% DMSO) containing DAR-4M AM (10 μM) prepared in Example 5, and incubated at 37° C. for 30 minutes to load DAR-4M AM on the cells. The cells were washed, and the culture broth was changed again to DMEM medium not containing DAR-4M AM. After incubation at 37° C. for 1 hour, imaging was performed. The cells were examined with a fluorescence microscope equipped with an excitation filter (520 to 550 nm), a dichromic mirror (565 nm), and a barrier filter (580 nm, long pass). The measurement was performed in a warm box kept at 37° C. Imaging interval was set to be 10 seconds, and images captured by a cooled charge-coupled device camera were recorded and analyzed by an image analyzer. The results in the figure are shown with averaged change of relative fluorescence intensity of arbitrary seven cells based on the fluorescence intensity at the time of the start of the measurement. The fluorescence intensity was increased by stimulation with bradykinin (FIG. 3(A)), but the fluorescence intensity was not increased in the presence of a nitric oxide synthetase inhibitor (1 mM L-NAME) (FIG. 3(B)).

Row | Structure (SMILES) | reaction with nitric oxide in the cells ([1]; DAR-4M produced in the cells from DAR-4M AM) | melting point [°C] | uptake into the cells ([1]; 10 μM in DMEM medium, 37° C., 30 minutes) | fluorescence intensity in the presence of a nitric oxide synthetase inhibitor ([1]; 1 mM L-NAME, cells loaded with 10 μM) | fluorescence intensity on stimulation with bradykinin ([1]; cells loaded with 10 μM, 37° C., 30 minutes, average of seven cells)
1 | CNc1ccc(-c2c3ccc(N(C)C)cc3[o+]c3cc(N(C)C)ccc23)c(C(=O)[O-])c1N [DAR-4M, 3,6-bis(dimethylamino)-9-[3-amino-4-(N-methylamino)-2-carboxyphenyl]xanthylium intramolecular salt] | specifically reacted with nitric oxide | – | – | – | –
2 | CCN(CC)c1ccc2c(-c3ccc(NC)c(N)c3C(=O)OCOC(C)=O)c3ccc(N(CC)CC)cc3[o+]c2c1.[I-] [DAR-M AM, 3,6-bis(diethylamino)-9-[2-acetoxymethoxycarbonyl-3-amino-4-(N-methylamino)phenyl]xanthylium iodide] | – | 147 to 150 | – | – | –
3 | CNc1ccc(-c2c3ccc(N(C)C)cc3[o+]c3cc(N(C)C)ccc23)c(C(=O)OCOC(C)=O)c1N.[I-] [DAR-4M AM, 3,6-bis(dimethylamino)-9-[2-acetoxymethoxycarbonyl-3-amino-4-(N-methylamino)phenyl]xanthylium iodide] | – | 177 to 178 | taken into the cells | not increased | increased
